Experimental findings from patent publication US12202858B2, “Solid-phase carrier including IgG-binding peptide, and IgG separation method” (KAGOSHIMA UNIVERSITY, priority 2018, dated 2025) are described below.

Bridges are numbered along the chain shown (N, C = ends). Primed or numbered codes have the meaning given here. Where no end group is shown, it is not given here. [ ]: non-standard residue; d: D form. PEG4′ = not defined here

One data set deals with human IgG. Description: Affinity analysis by surface plasmon resonance (BIAcore T200), human IgG immobilized on sensor chip. In kind it is binding. As to conditions: BIAcore T200, HBS-EP buffer pH 7.4, immobilized human IgG. The method, then: The affinity analysis was performed by the following method. First, a solution containing equal amounts of 0.4 M EDC (1-ethyl-3-(3-dimethylaminopropyl)-carbodiimide) and 0.1 M sulfo-NHS (sulfo-N-hydroxysuccinimide)) was injected at a flow rate of […] onto a CMS sensor chip set in BIAcore T200 (GE healthcare), thereby activating the sensor chip. Then, under the condition of pH 5.5 (10 mM Na acetate), human IgG was immobilized onto the sensor chip. For the measurement, HBS-EP buffer (10 mM HEPES, 150 mM NaCl, 0.005% Tween 20, 3 mM EDTA, pH 7.4) was used, and the binding reaction was monitored by injecting 15.6, 31.2, 62.5, 125, 250, 500, and 1000 nM of the purified cross-linked cyclic peptide described above for 180 seconds at a flow rate of […]. For measuring the dissociation reaction, only the buffer was injected for 600 seconds. The analysis of interaction parameters was performed using BIA evaluation T100 software.
In Comparative Example 1, the cross-linked cyclic peptide described in Patent Document 2 was synthesized, and measurement of affinity was performed in the same manner as in Example 1. Synthesis of the peptide and cross-linking reaction were carried out under the following conditions.

Data set [1] has as its system human serum-derived y-globulin. Briefly: Evaluation of alkali resistance: DBC after washing with 0.1 M sodium hydroxide solution. As to conditions: up to ten cycles of 0.1 M sodium hydroxide treatment. In kind it is physicochemical. As for the experimental part: The DBC measurement was performed using a liquid chromatography instrument AKTAexplore (GE Healthcare). After equilibrating the prepared column with an adsorption solution, 1 mg/mL human serum-derived y-globulin (Sigma-Aldrich) dissolved in the adsorption solution was fed at a flow rate of 1 mL/min. The DBC was determined from the amount of the sample fed until the value of an absorbance at 280 nm excluding the non-adsorbed component reached 10% of the absorbance of the entire sample.
To a 1-mg peptide-immobilized 1-mL column prepared by the same method as in Example 2, 10 mL of 0.1 M sodium hydroxide solution was fed. The column was then washed with 10 mL of an adsorption solution. After washing with the sodium hydroxide solution/adsorption solution for 1, 2, 5, and 10 times, measurement of DBC was performed at a flow rate of 1 mL/min in the same manner as in Example 2. The variation rate of DBC was determined based on the DBC before the sodium hydroxide treatment as 100%. […]

The term Kd denotes a measure of binding affinity in units of concentration. Low values mean tighter binding, high ones weaker binding. What is called koff is a measure of how fast the partners let go of each other. High values mean a short-lived complex, low ones a long-lived complex. What is called kon is the rate constant with which the complex forms. Low values mean slow association, high ones fast association. As to “PEG4-modified, amidated GPDCAYHRGELVWCTFH peptide of Patent Document 2, cysteine sulfide groups linked via 1,3-dichloro-2-propanone-derived linker ([PEG4′]GPDCAYHRGELVWCTFH-NH2; bridge 5-15; not fully specified (bridges)) [Comparative Example 1, reference compound]”, at human IgG, the dissociation constant (Kd) was found to be 4.9 µM, the koff was determined as 0.005 s⁻¹ and the on-rate constant (kon) was determined as 1000 M⁻¹ s⁻¹.
At human IgG, “N-terminal PEG4-modified, C-terminal amidated cross-linked cyclic peptide GPDCAYHRGELVWCTFH (SEQ ID NO: 31), two cysteine residues linked as in the formula [Example 1]” came in with an equilibrium dissociation constant (Kd) of 0.34 µM, a koff of 0.22 s⁻¹ and an association rate constant (kon) of 650000 M⁻¹ s⁻¹. For the same substance, the “decrease in DBC by sodium hydroxide treatment (alkali resistance)” value in data set [1] is “almost no decrease in DBC”.
